The test system of this test is cetuximab IgG. Description: Surface plasmon resonance binding kinetics of meditope variants to cetuximab. The following applies: SPR; for k a / k d: Biacore T100, cetuximab IgG amine-coupled to CM5 chip (5000 RU), HBS-EP+ pH 7.4, flow 30 µl min^−1; for k a: error <38% for values of variants marked ‡; for k d: off-rate independent of peptide concentration.

Molecules are shown by their SMILES.

`CC(=O)N[C@H]1CSSC[C@@H](C(N)=O)NC(=O)[C@H](CCCCN)NC(=O)[C@H](CC(C)C)NC(=O)[C@H](CCCNC(=N)N)NC(=O)[C@H](CCCNC(=N)N)NC(=O)[C@H]([C@@H](C)O)NC(=O)[C@H](CO)NC(=O)[C@H](CC(C)C)NC(=O)[C@H](CC(=O)O)NC(=O)[C@H](Cc2ccccc2)NC(=O)[C@H](CCC(N)=O)NC1=O` returned a k a of 15 M^−1 s^−1 × 10^4 and a k d of 0.011 s⁻¹. Moreover, the “increase in affinity compared with the original meditope” value (ratio of K d to the original disulfide meditope) is given as around 2.3 fold.

In turn, `CC(=O)N[C@H]1CSSC[C@@H](C(=O)NCC(=O)NCC(=O)N[C@@H](CO)C(=O)N[C@@H](CCCCN)C(=O)O)NC(=O)[C@H](CCCNC(=N)N)NC(=O)[C@H](CC(C)C)NC(=O)[C@H](CCCNC(=N)N)NC(=O)[C@H](CCCNC(=N)N)NC(=O)[C@H]([C@@H](C)O)NC(=O)[C@H](CO)NC(=O)[C@H](CC(C)C)NC(=O)[C@H](CC(=O)O)NC(=O)[C@H](Cc2ccccc2)NC(=O)[C@H](CCC(N)=O)NC1=O` registered a k d of 0.010 s⁻¹.

In the case of `CC(C)C[C@@H]1NC(=O)[C@H](CCCNC(=N)N)NC(=O)[C@H](CCCNC(=N)N)NC(=O)[C@H]([C@@H](C)O)NC(=O)[C@H](CO)NC(=O)[C@H](CC(C)C)NC(=O)[C@H](CC(=O)O)NC(=O)[C@H](Cc2ccccc2)NC(=O)[C@H](CCC(N)=O)NC(=O)CCCCCCNC(=O)[C@H](CCCCN)NC1=O`, the k a worked out at 3.8 M^−1 s^−1 × 10^4 and the k d came out at 0.064 s⁻¹.

Molecule `CC(C)C[C@@H]1NC(=O)[C@H](CCCNC(=N)N)NC(=O)[C@H](CCCNC(=N)N)NC(=O)[C@H]([C@@H](C)O)NC(=O)[C@H](CO)NC(=O)[C@H](CC(C)C)NC(=O)[C@H](CC(=O)O)NC(=O)[C@H](Cc2ccccc2)NC(=O)[C@H](CCC(N)=O)NC(=O)[C@@H](N)CSSC[C@@H](C(N)=O)NC(=O)[C@H](CCCCN)NC1=O` had a k a of 12 M^−1 s^−1 × 10^4 and a k d of 0.018 s⁻¹.

As to `CC(C)C[C@@H]1NC(=O)[C@H](CCCNC(=N)N)NC(=O)[C@H](CCCNC(=N)N)NC(=O)[C@H]([C@@H](C)O)NC(=O)[C@H](CO)NC(=O)[C@H](CC(C)C)NC(=O)[C@H](CC(=O)O)NC(=O)[C@H](Cc2ccccc2)NC(=O)[C@H](CCC(N)=O)NC(=O)CCSSC[C@@H](C(=O)O)NC(=O)[C@H](CCCCN)NC1=O`, the k a came out at 2.1 M^−1 s^−1 × 10^4 and the k d came out at 0.012 s⁻¹. In addition, under “ratio of k a”, the “decrease in the on-rate compared with the long meditope” value is reported as around 4.4 fold.

For the molecule `CC(C)C[C@@H]1NC(=O)[C@H](CCCNC(=N)N)NC(=O)[C@H](CCCNC(=N)N)NC(=O)[C@H]([C@@H](C)O)NC(=O)[C@H](CO)NC(=O)[C@H](CC(C)C)NC(=O)[C@H](CC(=O)O)NC(=O)[C@H](Cc2ccccc2)NC(=O)[C@H](CCC(N)=O)NC(=O)CCNC(=O)CCNC(=O)[C@H](CCCCN)NC1=O`, the k a worked out at 5.8 M^−1 s^−1 × 10^4 and the k d is 0.091 s⁻¹.
